Results taken from US4743585A (Warner-Lambert Company, priority 1986, dated 1988).
Where a name gives a salt, the structure may show the parent alone.

Target: T1, renin (Homo sapiens, UniProt P00797)
T1 sequence (P00797 67-406): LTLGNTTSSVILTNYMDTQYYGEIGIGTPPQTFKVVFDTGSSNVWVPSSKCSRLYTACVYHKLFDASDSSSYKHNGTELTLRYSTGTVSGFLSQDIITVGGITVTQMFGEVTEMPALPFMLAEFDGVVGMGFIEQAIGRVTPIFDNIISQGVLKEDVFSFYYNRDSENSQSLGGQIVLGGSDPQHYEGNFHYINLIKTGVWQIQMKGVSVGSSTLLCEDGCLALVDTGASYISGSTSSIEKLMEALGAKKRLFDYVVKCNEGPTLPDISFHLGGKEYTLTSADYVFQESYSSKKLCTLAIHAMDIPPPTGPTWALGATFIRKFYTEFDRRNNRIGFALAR
Experiment: in vitro renin inhibitory activity, standard radioimmunoassay for angiotensin I
Type: biochemical
Method: The effectiveness of the aforementioned compounds is determined by a test for in vitro renin inhibitory activity. This activity is determined by a standard radioimmunoassay for angiotensin I. In this assay the enzyme, renin, incubated for two hours at 37° in the presence of a substrate, angiotensinogen, generates the product, angiotensin I. Test compounds are added to the incubation mixture.

Row | Compound | IC50
1 | CCC(C)CNC(=O)CCC(O)[C@H](Cc1ccccc1)NC(=O)[C@H](Cc1c[nH]cn1)NC(=O)[C@H](Cc1ccccc1)NC(=O)OC(C)(C)C (stereo partly drawn) [Example 85, BOC-PHE-HIS-PHE[CHOHCH2 ]GLY-NHCH2 CH(CH3)CH2 CH3] | 0.075 µM
2 | CC(C)CC(=O)N[C@@H](Cc1ccccc1)C(=O)N[C@@H](Cc1c[nH]cn1)C(=O)N[C@@H](CC1CCCCC1)C(O)CCC(=O)NCc1ccccc1 (stereo partly drawn) [Example 27, L-histidinamide,N-(3-methyl-1-oxobutyl)-L-phenylalanyl-N-[1-(cyclohexylmethyl)-2-hydroxy-5-oxo-5-[(phenylmethyl)amino]pentyl]] | 0.25 µM
3 | CC(C)CC(CC(O)[C@H](CC1CCCCC1)NC(=O)OC(C)(C)C)C(=O)N[C@@H](CC(C)C)[C@@H](O)CC(=O)N[C@@H](CC(C)C)C(=O)NCc1ccccc1 (stereo partly drawn) [Example 79] | 3.8 µM
4 | CC(C)CC(NC(=O)CC(O)C(CC(C)C)NC(=O)CC(O)C(O)C(Cc1c[nH]c2ccccc12)NC(=O)OC(C)(C)C)C(=O)NCc1ccccc1 (stereo not drawn) [Example 18, 8,13,14-trihydroxy-15-(1H-indol-3-ylmethyl)-4,9-bis-(2-methylpropyl)-3,6,11-trioxo-1-phenyl-2,5,10,16-tetraazaheptadecan-17-oic acid, 1,1-dimethylethyl ester] | 2.3 µM
5 | CC(C)CC(=O)N[C@H](CN[C@H](C(=O)N[C@@H](CC(C)C)[C@@H](O)CC(=O)N[C@@H](C)C(=O)N[C@@H](CC(C)C)[C@@H](O)CC(=O)NCc1ccccc1)C(C)C)C(C)C (relative stereo) [Example 52, 5,8,11,16,19-pentaazatricosan-23-amide, 13,2-dihydroxy-2,17-dimethyl-6,9-bis(1-methylethyl)-12,20-bis(2-methylpropyl)-4,10,15,18-tetraoxo-N-(phenylmethyl)-,:6S-(6R*,9R*,12R*,13R*,17R*,20R*,21R*):-,acetate (salt) (2:3)] | 18 µM
6 | CC[C@H](C)[C@H](NC[C@@H](NC(=O)CC(C)C)[C@@H](C)CC)C(=O)N[C@@H](CC(C)C)[C@@H](O)CC(=O)N[C@@H](CC(C)C)C(=O)NCc1ccccc1 [Example 73, 3,8,11,14-tetraazaoctadecanamide, 6-hydroxy-17-methyl-10,13-bis(1-methylpropyl)-2,7-bis(2-methylpropyl)-4,9,15-trioxo-N-(phenylmethyl)] | 30 µM
7 | CC(C)CC(=O)NC(Cc1ccccc1)CS(=O)(=O)C(Cc1ccccc1)C(=O)NC(CC(C)C)C(O)CC(=O)NC(C)C(=O)NC(CC(C)C)C(O)CC(=O)NCc1ccccc1 (stereo not drawn) [Example 38, 13,21-dihydroxy-2,17-dimethyl-12,20-bis(2-methylpropyl)-4,10,15,18-tetraoxo-N,6,9-tris(phenylmethyl)-8-thia-5,11,16,19-tetraazatricosan-23-amide-8,8-dioxide] | 1.5 µM
8 | CC(C)C[C@H](NC(=O)C[C@H](O)[C@H](CC(C)C)NC(=O)C(Cc1c[nH]cn1)CC(O)[C@H](Cc1ccccc1)NC(=O)OC(C)(C)C)C(=O)NCc1ccccc1 (single isomer, unassigned) [Example 30, BOC-PHE[CHOHCH2 ]HIS-STA-LEU-NHCH2 Ph] | 30 µM
9 | CC(C)CC(=O)N[C@@H](Cc1ccccc1)C(=O)N[C@@H](Cc1c[nH]cn1)C(=O)N[C@@H](CC(C)C)[C@@H](O)CC(=O)N[C@@H](CC(C)C)CN(Cc1ccccc1)C(=O)OCc1ccccc1 [Example 57, L-histidinamide. N-(3-methyl-1-oxobutyl)-L-phenylalanyl-N-[2-hydroxy-4-[[3-methyl-1-[[[(phenylmethoxy)carbonyl](phenylmethyl)amino]methyl]butyl]amino]-1-(2-methylpropyl)-4-oxobutyl]-, [1S-[1R*,2R*,4(R*)]]-] | 3 µM
10 | CC(C)CC(=O)N[C@@H](CC(C)C)C(=O)CC(Cc1ccccc1)C(=O)N[C@@H](CC(C)C)[C@@H](O)CC(=O)N[C@@H](CC(C)C)C(=O)NCc1ccccc1 (single isomer, unassigned) [Example 32] | 7.1 µM
11 | CC(C)C[C@H](NC(=O)[C@H](C)NC(=O)C[C@H](O)[C@H](CC(C)C)NC(=O)[C@H](Cc1ccccc1)NC[C@H](Cc1ccccc1)NC(=O)OC(C)(C)C)[C@@H](O)CC(=O)NCc1ccccc1 [Example 59, BOC-PHE[CH2 NH]PHE-STA-ALA-STA-NHCH2 Ph] | 5.6 µM
12 | CC(C)CC(=O)N[C@@H](Cc1ccccc1)C(=O)N[C@@H](Cc1c[nH]cn1)C(=O)N[C@@H](CC1CCCCC1)C(O)CCC(=O)N[C@@H](CC(C)C)C(=O)NCc1cccc(CN)c1 (stereo partly drawn) [Example 82] | 0.12 µM
13 | CC(C)C[C@H](NC(=O)C[C@H](O)[C@H](CC1CCCCC1)NC(=O)C/C=C/[C@H](Cc1ccccc1)NC(=O)OC(C)(C)C)C(=O)NCc1cccc(CNC(=O)OCc2ccccc2)c1 [Example 8] | 8 µM
14 | CC(C)CC(=O)N[C@@H](Cc1ccccc1)C(=O)N[C@@H](Cc1c[nH]cn1)C(=O)N[C@@H](CC(C)C)[C@@H](O)CC(=O)N[C@H](CNCc1ccccc1)CC(C)C [Example 58, IVA-PHE-HIS-STA-LEU[CH2 NH]CH2 Ph] | 1.9 µM
15 | CC(C)CC(NC(=O)CC(O)C(CC(C)C)NC(=O)CC(O)C(O)C(CC1CCCCC1)NC(=O)OC(C)(C)C)C(=O)NCc1ccccc1 (single isomer, unassigned) [Example 17, 15-(cyclohexylmethyl)-8,13,14-trihydroxy-4,9-bis(2-methylpropyl)-3,6,11-trioxo-1-phenyl-2,5,10,16-tetraazaheptadecan-17-oic acid, 1,1-dimethylethyl ester] | 6.5 µM
16 | CC(C)CC(=O)NC(CCCC(=O)NC(CC(C)C)C(O)CC(=O)NC(CC(C)C)C(=O)NCc1ccccc1)Cc1ccccc1 (stereo not drawn) [Example 47, N-[2-hydroxy-4-[[3-methyl-1-[[(phenylmethyl)amino]carbonyl]butyl]amino]-1-(2-methylpropyl)-4-oxobutyl]-δ-[(3-methyl-1-oxobutyl)amino]benzenehexanamide] | 26 µM
17 | CC(C)C[C@H](NC(=O)C(/C=C/[C@H](Cc1ccccc1)NC(=O)OC(C)(C)C)Cc1ccccc1)[C@@H](O)CC(=O)N[C@@H](C)C(=O)N[C@@H](CC(C)C)[C@@H](O)CC(=O)NCc1ccccc1 (stereo partly drawn) [Example 2, (E)-5,13-dihydroxy-9-methyl-6,14-bis(2-methylpropyl)-3,8,11,16-tetraoxo-1-phenyl-17,20-bis(phenylmethyl)-2,7,10,15,21-pentaazadocos-18-en-22-oic acid, 1,1-dimethylethyl ester] | 12 µM
18 | CCC(C)CNC(=O)CCC(O)[C@H](CC1CCCCC1)NC(=O)[C@H](Cc1c[nH]cn1)NC(=O)[C@H](Cc1cccc2ccccc12)NC(=O)OCc1ccccc1 (stereo partly drawn) [Example 77] | 1.6 µM
